From patent US11117905B2, “Bisaryl heterocycles as NRF2 activators” (GLAXOSMITHKLINE INTELLECTUAL PROPERTY DEVELOPMENT LIMITED, priority 2016, dated 2021)

The compounds below were run on NQO1 specific enzyme activity in BEAS-2B cells (marker for NRF2 activation) (assay: BEAS-2B NQO1 MTT Assay). Conditions: Homo sapiens, BEAS-2B, 48 h, NQO1 specific activity induction, 48 hours with compound.
Type: cell-based
From the text: NAD(P)H:quinone oxidoreductase 1 (NQO1), also called DT diaphorase, is a homodimeric FAD-containing enzyme that catalyzes obligatory NAD(P)H-dependent two-electron reductions of quinones and protects cells against the toxic and neoplastic effects of free radicals and reactive oxygen species arising from one-electron reductions. The transcription of NQO1 is finely regulated by NRF2, and thus NQO1 activity is a good marker for NRF2 activation. On day one, frozen BEAS-2B cells (ATCC) were thawed in a water bath, counted, and re-suspended at a concentration of 250,000 cells/mL. Fifty microliters of cells were plated in 384 well black clear-bottomed plates. Plates were incubated at 37° C., 5% CO2 overnight. On day two, plates were centrifuged and 50 nL of compound or controls were added to the cells. Plates were then incubated at 37° C., 5% CO2 for 48 hours. On day four, medium was aspirated from the plate and crude cell lysates were made by adding 13 uL of 1× Cell Signaling Technologies lysis buffer with 1 Complete, Mini, EDTA-free Protease Inhibitor Tablet (Roche) for each 10 mL of lysis buffer. After lysis plates were incubated for 20 minutes at room temperature. Two microliters of lysate were removed for use in Cell Titer Glo assay (Promega) and MTT cocktail was prepared (Prochaska et. al. 1998) for measurement of NQO1 activity. Fifty microliters of MTT cocktail is added to each well, plate is centrifuged, and analyzed on an Envision plate reader (Perkin Elmer) using Absorbance 570 nm label for 30 minutes. Product formation was measured kinetically and the pEC50 of NQO1 specific activity induction was calculated by plotting the change in absorbance (Delta OD/min) versus the log of compound concentration followed by 3-parameter fitting.
pEC50 is the negative log of the EC50.
EC50s<1 nM (+++++), EC50s 1 nM-10 nM (++++), EC50s 10 nM-100 nM (+++), EC50s 100 nM-1 uM (++), EC50s 1 uM-10 uM (+), EC50s>10 uM (−), or were not determined (ND).

Compared with `CCn1nnc2c(C)c([C@@H](c3cc(CN4C[C@@H](C)Cc5ccc(C(F)(F)F)cc5S4(=O)=O)n(C)n3)C(C)(C)C(=O)O)ccc21` [Example 37, (R)-3-(1-Ethyl-4-methyl-1H-benzo[d][1,2,3]triazol-5-yl)-2,2-dimethyl-3-(1-methyl-5-(((S)-4-methyl-1,1-dioxido-8-(trifluoromethyl)-4,5-dihydrobenzo[f][1,2]thiazepin-2(3H)-yl)methyl)-1H-pyrazol-3-yl)propanoic Acid], `CCn1nnc2c(C)c([C@H](c3cc(CN4C[C@@H](C)Cc5ccc(C(F)(F)F)cc5S4(=O)=O)n(C)n3)C(C)(C)C(=O)O)ccc21` [Example 50, (S)-3-(1-Ethyl-4-methyl-1H-benzo[d][1,2,3]triazol-5-yl)-2,2-dimethyl-3-(1-methyl-5-(((S)-4-methyl-1,1-dioxido-8-(trifluoromethyl)-4,5-dihydrobenzo[f][1,2]thiazepin-2(3H)-yl)methyl)-1H-pyrazol-3-yl)propanoic Acid] is lower in EC50: 100 to 1000 nM for the first, 1 to 10 nM for the second.

First: CCn1nnc2c(C)c([C@H](c3cc(CN4C[C@@H](C)Cc5ccccc5S4(=O)=O)c(C)s3)C(C)(C)C(N)=O)ccc21 [Example 39, (S)-3-(1-Ethyl-4-methyl-1H-benzo[d][1,2,3]triazol-5-yl)-2,2-dimethyl-3-(5-methyl-4-(((S)-4-methyl-1,1-dioxido-4,5-dihydrobenzo[f][1,2]thiazepin-2(3H)-yl)methyl)thiophen-2-yl)propanamide]
Second: CCn1nnc2c(C)c([C@H](c3cc(CN4C[C@@H](C)Cc5ccccc5S4(=O)=O)c(C)s3)C(C)(C)C(=O)Nc3cccnc3)ccc21 [Example 52, (S)-3-(1-Ethyl-4-methyl-1H-benzo[d][1,2,3]triazol-5-yl)-2,2-dimethyl-3-(5-methyl-4-(((S)-4-methyl-1,1-dioxido-4,5-dihydrobenzo[f][1,2]thiazepin-2(3H)-yl)methyl)thiophen-2-yl)-N-(pyridin-3-yl)propanamide]
The EC50 of the first is higher: 10 to 100 nM for the first, 1 to 10 nM for the second. The second is the more potent here.

Compared with `CC[C@@H]1CN(Cc2cc([C@H](c3ccc4c(nnn4CC)c3F)C(C)(C)C(=O)O)sc2Cl)S(=O)(=O)c2ccccc2O1` [Example 40, (S)-3-(5-Chloro-4-(((R)-4-ethyl-1,1-dioxido-3,4-dihydro-2H-benzo[b][1,4,5]oxathiazepin-2-yl)methyl)thiophen-2-yl)-3-(1-ethyl-4-fluoro-1H-benzo[d][1,2,3]triazol-5-yl)-2,2-dimethylpropanoic Acid], `CC[C@@H]1CN(Cc2cc([C@@H](c3ccc4c(nnn4CC)c3F)C(C)(C)C(=O)O)sc2Cl)S(=O)(=O)c2ccccc2O1` [Example 53, (R)-3-(5-Chloro-4-(((R)-4-ethyl-1,1-dioxido-3,4-dihydro-2H-benzo[b][1,4,5]oxathiazepin-2-yl)methyl)thiophen-2-yl)-3-(1-ethyl-4-fluoro-1H-benzo[d][1,2,3]triazol-5-yl)-2,2-dimethylpropanoic Acid] is lower in EC50: 10 to 100 nM for the first, less than 1 nM for the second.

`CC[C@H]1Cc2ccccc2S(=O)(=O)N(Cc2nc([C@@H](c3ccc4c(nnn4CC)c3C)C(C)(C)C(=O)O)sc2C)C1` [Example 41, (S)-3-(4-(((S)-4-Ethyl-1,1-dioxido-4,5-dihydrobenzo[f][1,2]thiazepin-2(3H)-yl)methyl)-5-methylthiazol-2-yl)-3-(1-ethyl-4-methyl-1H-benzo[d][1,2,3]triazol-5-yl)-2,2-dimethylpropanoic Acid] and `CC[C@H]1Cc2ccc(C(F)(F)F)cc2S(=O)(=O)N(Cc2nc([C@@H](c3ccc4c(nnn4CC)c3C)C(C)(C)C(=O)O)sc2C)C1` [Example 49, (S)-3-(4-(((S)-4-Ethyl-1,1-dioxido-8-(trifluoromethyl)-4,5-dihydrobenzo[f][1,2]thiazepin-2(3H)-yl)methyl)-5-methylthiazol-2-yl)-3-(1-ethyl-4-methyl-1H-benzo[d][1,2,3]triazol-5-yl)-2,2-dimethylpropanoic Acid] cannot be ordered by EC50: less than 1 nM for the first, less than 1 nM for the second.

`CC[C@H]1Cc2ccccc2S(=O)(=O)N(Cc2nc([C@@H](c3ccc4c(nnn4CC)c3C)C(C)(C)C(=O)Nc3cccnc3)sc2C)C1` [Example 42, (S)-3-(4-(((S)-4-Ethyl-1,1-dioxido-4,5-dihydrobenzo[f][1,2]thiazepin-2(3H)-yl)methyl)-5-methylthiazol-2-yl)-3-(1-ethyl-4-methyl-1H-benzo[d][1,2,3]triazol-5-yl)-2,2-dimethyl-N-(pyridin-3-yl)propanamide] and `CC[C@H]1Cc2ccc(C(F)(F)F)cc2S(=O)(=O)N(Cc2nc([C@@H](c3ccc4c(nnn4CC)c3C)C(C)(C)C(=O)Nc3cccnc3)sc2C)C1` [Example 48, (S)-3-(4-(((S)-4-Ethyl-1,1-dioxido-8-(trifluoromethyl)-4,5-dihydrobenzo[f][1,2]thiazepin-2(3H)-yl)methyl)-5-methylthiazol-2-yl)-3-(1-ethyl-4-methyl-1H-benzo[d][1,2,3]triazol-5-yl)-2,2-dimethyl-N-(pyridin-3-yl)propanamide] fall in the same range of EC50: 10 to 100 nM for the first, 10 to 100 nM for the second.

Compared with `CCn1nnc2c(F)c([C@@H](c3cc(CN4C[C@@H](C)Cc5ccc(C(F)(F)F)cc5S4(=O)=O)c(Cl)s3)C(C)(C)C(=O)O)ccc21` [Example 43, (S)-3-(5-Chloro-4-(((S)-4-methyl-1,1-dioxido-8-(trifluoromethyl)-4,5-dihydrobenzo[f][1,2]thiazepin-2(3H)-yl)methyl)thiophen-2-yl)-3-(1-ethyl-4-fluoro-1H-benzo[d][1,2,3]triazol-5-yl)-2,2-dimethylpropanoic Acid], `CC[C@H]1Cc2ccc(C(F)(F)F)cc2S(=O)(=O)N(Cc2cc([C@@H](c3ccc4c(nnn4CC)c3C)C(C)(C)C(=O)O)sc2C)C1` [Example 55, (S)-3-(4-(((S)-4-Ethyl-1,1-dioxido-8-(trifluoromethyl)-4,5-dihydrobenzo[f][1,2]thiazepin-2(3H)-yl)methyl)-5-methylthiophen-2-yl)-3-(1-ethyl-4-methyl-1H-benzo[d][1,2,3]triazol-5-yl)-2,2-dimethylpropanoic Acid] is lower in EC50: 10 to 100 nM for the first, less than 1 nM for the second. The second is the more potent here.

First: CCn1nnc2c(C)c([C@H](c3nc(CN4C[C@@H](C)Cc5cc(C(F)(F)F)ccc5S4(=O)=O)c(C)s3)C(C)(C)C(=O)O)ccc21 [Example 44, (S)-3-(1-Ethyl-4-methyl-1H-benzo[d][1,2,3]triazol-5-yl)-2,2-dimethyl-3-(5-methyl-4-(((S)-4-methyl-1,1-dioxido-7-(trifluoromethyl)-4,5-dihydrobenzo[f][1,2]thiazepin-2(3H)-yl)methyl)thiazol-2-yl)propanoic Acid]
Second: CCn1nnc2c(C)c([C@H](c3nc(CN4C[C@@H](C)Cc5cc(C(F)(F)F)ccc5S4(=O)=O)c(C)s3)C(C)(C)C(=O)Nc3cccnc3)ccc21 [Example 45, (S)-3-(1-Ethyl-4-methyl-1H-benzo[d][1,2,3]triazol-5-yl)-2,2-dimethyl-3-(5-methyl-4-(((S)-4-methyl-1,1-dioxido-7-(trifluoromethyl)-4,5-dihydrobenzo[f][1,2]thiazepin-2(3H)-yl)methyl)thiazol-2-yl)-N-(pyridin-3-yl)propanamide]
The EC50 of the first is lower: less than 1 nM for the first, 10 to 100 nM for the second. The first is the more potent here.

`CC[C@@H]1CN(Cc2cc([C@H](CC(=O)O)c3ccc4c(nnn4CC)c3C)sc2C)S(=O)(=O)c2cccnc2O1` [Example 46, (R)-3-(4-(((R)-4-Ethyl-1,1-dioxido-3,4-dihydro-2H-pyrido[2,3-b][1,4,5]oxathiazepin-2-yl)methyl)-5-methylthiophen-2-yl)-3-(1-ethyl-4-methyl-1H-benzo[d][1,2,3]triazol-5-yl)propanoic Acid] and `CC[C@@H]1CN(Cc2cc([C@H](CC(=O)O)c3ccc4c(nnn4CC)c3C)sc2C)S(=O)(=O)c2cnccc2O1` [Example 47, (R)-3-(4-(((R)-4-Ethyl-1,1-dioxido-3,4-dihydro-2H-pyrido[4,3-b][1,4,5]oxathiazepin-2-yl)methyl)-5-methylthiophen-2-yl)-3-(1-ethyl-4-methyl-1H-benzo[d][1,2,3]triazol-5-yl)propanoic Acid] fall in the same range of EC50: 10 to 100 nM for the first, 10 to 100 nM for the second.

First: CC[C@@H]1CN(Cc2cc([C@@H](c3ccc4c(nnn4CC)c3C)C(C)(C)C(=O)Nc3cccnc3)sc2C)S(=O)(=O)c2ccccc2O1 [Example 51, (S)-3-(4-(((R)-4-Ethyl-1,1-dioxido-3,4-dihydro-2H-benzo[b][1,4,5]oxathiazepin-2-yl)methyl)-5-methylthiophen-2-yl)-3-(1-ethyl-4-methyl-1H-benzo[d][1,2,3]triazol-5-yl)-2,2-dimethyl-N-(pyridin-3-yl)propanamide]
Second: CC[C@@H]1CN(Cc2cc([C@@H](c3ccc4c(nnn4CC)c3C)C(C)(C)C(=O)O)sc2Cl)S(=O)(=O)c2cccnc2O1 [Example 54, (S)-3-(5-Chloro-4-(((R)-4-ethyl-1,1-dioxido-3,4-dihydro-2H-pyrido[2,3-b][1,4,5]oxathiazepin-2-yl)methyl)thiophen-2-yl)-3-(1-ethyl-4-methyl-1H-benzo[d][1,2,3]triazol-5-yl)-2,2-dimethylpropanoic Acid]
The EC50 of the first is higher: 1 to 10 nM for the first, less than 1 nM for the second. The second is the more potent here.
